Source: ChEMBL document CHEMBL1201862, “PubChem BioAssay data set” (2004)
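Exposure lasted 48 hours, with cells grown in 96-well plates and compounds tested at five concentrations. GI50 marks 50% less growth.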 Calls of active or inactive are those of the source. Rule as the data show it: active = GI50 up to about 1.1 µM and inactive = higher. Peptide text beside a SMILES is read from it. * marks the point of attachment. X27 = Clc1c(Cl)c(Cl)c(O*)c(Cl)c1Cl; Boc = CC(C)(C)OC(=O)*; OBn = c1ccc(CO*)cc1; Bn = c1ccc(C*)cc1

Assays:
Experiment in all cases: NCI-60 cell line screen, 48 h
OVCAR-5 = tested on: OVCAR-5
SNB-19 = tested on: SNB-19
HT-29 = tested on: HT-29
TK-10 = tested on: TK-10
NCI-H226 = tested on: NCI-H226
SR = tested on: SR
MDA-MB-231 = tested on: MDA-MB-231
NCI-H23 = tested on: NCI-H23
UACC-62 = tested on: UACC-62
OVCAR-8 = tested on: OVCAR-8
DU-145 = tested on: DU-145
Hs-578T = tested on: Hs-578T
M14 = tested on: M14
COLO 205 = tested on: COLO 205
U-251 = tested on: U-251
SF-539 = tested on: SF-539
NCI-H522 = tested on: NCI-H522
HL-60 = tested on: HL-60
Malme-3M = tested on: Malme-3M

Compound | GI50 (OVCAR-5) | GI50 (SNB-19) | GI50 (HT-29) | GI50 (TK-10) | GI50 (NCI-H226) | GI50 (SR) | GI50 (MDA-MB-231) | GI50 (NCI-H23) | GI50 (UACC-62) | GI50 (OVCAR-8) | GI50 (DU-145) | GI50 (Hs-578T) | GI50 (M14) | GI50 (COLO 205) | GI50 (U-251) | GI50 (SF-539) | GI50 (NCI-H522) | GI50 (HL-60) | GI50 (Malme-3M)
O=c1onc2c3ccccc3ncn12 | > 100 µM (inactive) | > 100 µM (inactive) | > 100 µM (inactive) | > 100 µM (inactive) | > 100 µM (inactive) | > 100 µM (inactive) | > 100 µM (inactive) | > 100 µM (inactive) | > 100 µM (inactive) | > 100 µM (inactive) | > 100 µM (inactive) | > 100 µM (inactive) | > 100 µM (inactive) | > 100 µM (inactive) | > 100 µM (inactive) | > 100 µM (inactive) | > 100 µM (inactive) |  | 
Cc1ccc(S(=O)(=O)NC(=O)NCC(=O)O)cc1 | > 100 µM (inactive) | > 100 µM (inactive) | > 100 µM (inactive) | > 100 µM (inactive) |  |  | > 100 µM (inactive) | > 100 µM (inactive) | > 100 µM (inactive) | > 100 µM (inactive) | > 100 µM (inactive) | > 100 µM (inactive) | > 100 µM (inactive) | > 100 µM (inactive) | > 100 µM (inactive) | > 100 µM (inactive) | > 100 µM (inactive) | > 100 µM (inactive) | > 100 µM (inactive)
CC(=O)N1c2ccccc2C(C)(C)OC1C(Cl)(Cl)Cl (configuration not stated) | 44.8 µM (inactive) | 44.7 µM (inactive) | 24.2 µM (inactive) | 35.9 µM (inactive) | 87.7 µM (inactive) |  | 39.6 µM (inactive) | 34.1 µM (inactive) | 37 µM (inactive) | 39.5 µM (inactive) | 42.1 µM (inactive) | 22.6 µM (inactive) | 34 µM (inactive) | 30.3 µM (inactive) | 33.3 µM (inactive) | 44.5 µM (inactive) | 23.3 µM (inactive) | 16.8 µM (inactive) | 35.9 µM (inactive)
CCN(CC)CCNC(=O)c1cc2cc(NC(=O)c3cc4cc(NC(=O)c5cc6cc([N+](=O)[O-])ccc6[nH]5)ccc4[nH]3)ccc2[nH]1 | > 100 µM (inactive) | > 100 µM (inactive) | > 100 µM (inactive) | > 100 µM (inactive) | > 100 µM (inactive) | < 0.01 µM (active) | > 100 µM (inactive) | > 100 µM (inactive) | > 100 µM (inactive) | > 100 µM (inactive) | > 100 µM (inactive) | > 100 µM (inactive) | > 100 µM (inactive) | > 100 µM (inactive) | > 100 µM (inactive) |  | > 100 µM (inactive) |  | > 100 µM (inactive)
COc1ccc(/C=C(\NC(=O)c2ccccc2)C(=O)NN(C)c2ccnc3cc(Cl)ccc23)cc1OC | 45.9 µM (inactive) | 41.2 µM (inactive) | 34.7 µM (inactive) | 36.7 µM (inactive) | 19.1 µM (inactive) | 16.2 µM (inactive) | 24.3 µM (inactive) | 24 µM (inactive) |  | 23.4 µM (inactive) | 27.2 µM (inactive) | 52.8 µM (inactive) | 22.6 µM (inactive) | 24.2 µM (inactive) | 19.7 µM (inactive) | 21.5 µM (inactive) | 21.8 µM (inactive) |  | 26.1 µM (inactive)
Nc1nc(-c2ccccc2/N=N/N2CCCC2)nc2ccccc12 | 1.86 µM (inactive) | 3.69 µM (inactive) | 2.38 µM (inactive) | 3.63 µM (inactive) | 2.22 µM (inactive) | 0.413 µM (active) | 1.58 µM (inactive) | 2.2 µM (inactive) | 1.77 µM (inactive) | 1.45 µM (inactive) | 4.93 µM (inactive) | 3.39 µM (inactive) | 3.08 µM (inactive) | 2.56 µM (inactive) | 2.67 µM (inactive) | 2.39 µM (inactive) | 4.28 µM (inactive) |  | 3.28 µM (inactive)
C=C[C@]1(O[Si](C)(C)C)C[C@@]2(C(=O)OCC)C(O)C(=O)N3CCc4cc(OC)c(OC)cc4[C@]312 (some centres not stated) | > 100 µM (inactive) | > 100 µM (inactive) | > 100 µM (inactive) | > 100 µM (inactive) | > 100 µM (inactive) | > 100 µM (inactive) | > 100 µM (inactive) | > 100 µM (inactive) | 21.4 µM (inactive) | > 100 µM (inactive) | > 100 µM (inactive) | 31.3 µM (inactive) | > 100 µM (inactive) | > 100 µM (inactive) | > 100 µM (inactive) | > 100 µM (inactive) |  |  | > 100 µM (inactive)
CC(C)CC(NC(=O)C(CCC(=O)OCc1ccccc1)NC(=O)OC(C)(C)C)C(=O)NC(COCc1ccccc1)C(=O)NC(Cc1ccccc1)C(=O)Oc1c(Cl)c(Cl)c(Cl)c(Cl)c1Cl (configuration not stated) (Boc-E(OBn)LS(Bn)F-X27; configuration not given here) | 25.3 µM (inactive) | 28.7 µM (inactive) | 35.6 µM (inactive) | 30.3 µM (inactive) |  | 29.2 µM (inactive) | 15.6 µM (inactive) | 16.1 µM (inactive) | 20.7 µM (inactive) | 27 µM (inactive) | 35.5 µM (inactive) | 25.1 µM (inactive) | 28 µM (inactive) | 26.2 µM (inactive) | 18.5 µM (inactive) |  | 21.9 µM (inactive) |  | 33.1 µM (inactive)
